Test results as given in patent US20030236213A1, “Mimics of acyl coenzyme-A comprising pantolactone and pantothenic acid derivatives, compositions thereof, and methods of cholesterol management and related uses” (priority 2002, published 2003).

What was measured:
obese female Zucker rats = experiment: Oral daily treatment of obese female Zucker rats for fourteen days; type: in vivo, rat; details: 14 days; for Glucose, Percent Change from Pre-treatment: blood, 6-hour fast; for Glucose, Percent Change from Pre-treatment / BHA, Percent Change from Pre-treatment / HDL-C, Percent Change from Pre-treatment / Insulin, Percent Change from Pre-treatment / NEFA, Percent Change from Pre-treatment / Non HDL-C, Percent Change from Pre-treatment / TC, Percent Change from Pre-treatment / TG, Percent Change from Pre-treatment: oral daily; for % wt. gain / HDL-C/non HDL-C: oral gavage daily; for BHA, Percent Change from Pre-treatment / HDL-C, Percent Change from Pre-treatment / Insulin, Percent Change from Pre-treatment / NEFA, Percent Change from Pre-treatment / Non HDL-C, Percent Change from Pre-treatment / TC, Percent Change from Pre-treatment / TG, Percent Change from Pre-treatment: serum
Protocol: In a number of different experiments, compounds described in Table 1 were administered daily to 11-13 week old chow fed obese female Zucker rats for 14 days in the morning by oral gavage in 20% ethanol/80% polyethylene glycol-200 (dosing vehicle)(“EP”). The dosing vehicle was administered to control animals in parallel experiments.
Body weight was determined daily prior to dosing. Animals were allowed free access to rodent chow and water throughout the study. Blood glucose was determined after a 6-hour fast in the afternoon without anesthesia from a tail vein. Serum was also prepared from a blood sample subsequently obtained from the orbital venous plexus (with O2/CO2 anesthesia) prior to and after one week treatment and used lipid and insulin determinations. At two weeks, blood glucose was again determined after a 6-hour fast without anesthesia from a tail vein. Soon thereafter, animals were sacrificed by CO2 inhalation in the afternoon and cardiac blood serum was collected and assessed for various lipids and insulin.

primary rat hepatocytes = experiment: Synthesis of total lipids (14C-acetate labeling) in primary rat hepatocytes; type: cell-based; details: Hepatocyte, 14C-acetate labeling 4 hr at 37° C., 1-300 μM, read-out: IC50, total lipid synthesis
Protocol: A male Sprague-Dawley rate was anesthetized by administration of sodium pentobarbitol by intraperitoneal at 80 mg/kg. In situ perfusion of the liver was performed as follows. The abdomen of the animal was opened, the portal vein canulated, and the liver perfused with WOSH solution (149 mM NaCl, 9.2 mM Na HEPES, 1.7 mM Fructose, 0.5 mM EGTA, 0.029 mM Phenol red, 10 U/ml heparin, pH 7.5) at a flow rate of 30 ml/min for 6 minutes. To digest the liver, DSC solution (6.7 mM KCl, 143 mM NaCl, 9.2 mM Na HEPES, 5 mM CaCl2-2H2O, 1.7 mM Fructose, 0.029 mM Phenol red, 0.2% BSA, 100 U/ml collagenase Type I, 160 BAEE/ml trypsin inhibitor, pH 7.5) was perfused through the liver at a flow rate of 30 ml/min for 6 minutes at a temperature of 37° C. After digestion, cells were dispersed in a solution of DMEM-(DMEM containing 2 mM GlutMax-1, 0.2% BSA, 5% FBS, 12 nM insulin, 1.2 μM hydrocortisone) to stop the digestion process. The crude cell suspension was filtered through three layers of stainless steel mesh with pore sizes of 250, 106, and 75 μm respectively. Filtered cells were centrifuged at 50×g for two minutes and the supernatant discarded. The resulting cell pellet was resuspended in DMEM and centrifuged again. […]

With `CC(C)(CO)C(O)C(=O)NCCNC(=O)C(O)C(C)(C)CO` (racemic) [Compound V2, N-[2-(2,4-Dihydroxy-3,3-dimethylbutyrylamino)-ethyl]-2,4-dihydroxy-3,3-dimethylbutyramide] the “Glucose, Percent Change from Pre-treatment” value (“Glucose, Percent Change” for short) (obese female Zucker rats; 30 mg/kg/day) was −8%, the “% wt. gain” value (obese female Zucker rats; 30 mg/kg/day) was 10% and the “HDL-C/non HDL-C” value (obese female Zucker rats; 30 mg/kg/day) was 2. For the same compound, the “BHA, Percent Change from Pre-treatment” value (obese female Zucker rats; 30 mg/kg/day) was 58%, the “HDL-C, Percent Change from Pre-treatment” value (obese female Zucker rats; 30 mg/kg/day) was −20% and the “Insulin, Percent Change from Pre-treatment” value (from here on “Insulin, Percent Change”) (obese female Zucker rats; 30 mg/kg/day) was −53%. The “NEFA, Percent Change from Pre-treatment” value (obese female Zucker rats; 30 mg/kg/day) was −23%, the “Non HDL-C, Percent Change from Pre-treatment” value (from here on “Non HDL-C, Percent Change”) (obese female Zucker rats; 30 mg/kg/day) was 23% and the “TC, Percent Change from Pre-treatment” value (obese female Zucker rats; 30 mg/kg/day) was −13%. The “TG, Percent Change from Pre-treatment” value (obese female Zucker rats; 30 mg/kg/day) was 36%.

With `CCCCCOc1cc(C)c(NC(=O)C(O)C(C)(C)CO)c(C)c1` (centres unmarked) [AA, N-(2,6-dimethyl-4-pentyloxy-phenyl)-2,4-dihydroxy-3,3-dimethyl-butyramide] the melting point was 101 to 102.5 °C, the “Glucose, Percent Change” value (obese female Zucker rats; 100 mg/kg/day) was 10% and the “% wt. gain” value (obese female Zucker rats; 100 mg/kg/day) was 11%. For the same compound, the “HDL-C/non HDL-C” value (obese female Zucker rats; 100 mg/kg/day) was 3, the “BHA, Percent Change from Pre-treatment” value (obese female Zucker rats; 100 mg/kg/day) was 51% and the “HDL-C, Percent Change from Pre-treatment” value (obese female Zucker rats; 100 mg/kg/day) was 87%. For the same compound, the “Insulin, Percent Change” value (obese female Zucker rats; 100 mg/kg/day) was −10%, the “NEFA, Percent Change from Pre-treatment” value (obese female Zucker rats; 100 mg/kg/day) was −30% and the “Non HDL-C, Percent Change” value (obese female Zucker rats; 100 mg/kg/day) was −17%. The “TC, Percent Change from Pre-treatment” value (obese female Zucker rats; 100 mg/kg/day) was 41% and the “TG, Percent Change from Pre-treatment” value (obese female Zucker rats; 100 mg/kg/day) was −38%.

In the case of `CC(C)(CO)C(O)C(=O)NCc1cccnc1` (centres unmarked) [AB, 2,4-Dihydroxy-3,3-dimethyl-N-pyridin-3ylmethyl-butyramide], the melting point is reported as 120 to 121.5 °C.

With `Cc1cc(OCCCCC(C)(C)CO)cc(C)c1NC(=O)C(O)C(C)(C)CO` (centres unmarked) [Compound AC, 2,4-dihydroxy-N-[4-(6-hydroxy-5,5-dimethyl-hexyloxy)-2,6-dimethyl-phenyl]-3,3-dimethyl-butyramide] the IC50 (primary rat hepatocytes) was 2100 nM.

With `CC(C)(CO)[C@H](O)C(=O)NCCNC(=O)[C@H](O)C(C)(C)CO` [Compound V1, (R,S)-N-[2-(2,4-Dihydroxy-3,3-dimethylbutyrylamino)-ethyl]-2,4-dihydroxy-3,3-dimethyl-butyramide] the “Glucose, Percent Change” value (obese female Zucker rats; 100 mg/kg/day) was −3%, the “% wt. gain” value (obese female Zucker rats; 100 mg/kg/day) was 11% and the “HDL-C/non HDL-C” value (obese female Zucker rats; 100 mg/kg/day) was 1. For the same compound, the “BHA, Percent Change from Pre-treatment” value (obese female Zucker rats; 100 mg/kg/day) was 63%, the “HDL-C, Percent Change from Pre-treatment” value (obese female Zucker rats; 100 mg/kg/day) was 77% and the “Insulin, Percent Change” value (obese female Zucker rats; 100 mg/kg/day) was −20%. The “NEFA, Percent Change from Pre-treatment” value (obese female Zucker rats; 100 mg/kg/day) was 7%, the “Non HDL-C, Percent Change” value (obese female Zucker rats; 100 mg/kg/day) was 6% and the “TC, Percent Change from Pre-treatment” value (obese female Zucker rats; 100 mg/kg/day) was 34%. For the same compound, the “TG, Percent Change from Pre-treatment” value (obese female Zucker rats; 100 mg/kg/day) was 22%.

With `CC(C)(CO)[C@@H](O)C(=O)NCCNC(=O)[C@H](O)C(C)(C)CO` [Compound V3, (R,R)-N-[2-(2,4-Dihydroxy-3,3-dimethylbutyrylamino)-ethyl]-2,4-dihydroxy-3,3-dimethylbutyramide] the melting point was 124.8 to 124.9 °C, the “Glucose, Percent Change” value (obese female Zucker rats; 30 mg/kg/day) was 3% and the “% wt. gain” value (obese female Zucker rats; 30 mg/kg/day) was 9%. The “HDL-C/non HDL-C” value (obese female Zucker rats; 30 mg/kg/day) was 2, the “BHA, Percent Change from Pre-treatment” value (obese female Zucker rats; 30 mg/kg/day) was 69% and the “HDL-C, Percent Change from Pre-treatment” value (obese female Zucker rats; 30 mg/kg/day) was 7%. The “Insulin, Percent Change” value (obese female Zucker rats; 30 mg/kg/day) was 11%, the “NEFA, Percent Change from Pre-treatment” value (obese female Zucker rats; 30 mg/kg/day) was −16% and the “Non HDL-C, Percent Change” value (obese female Zucker rats; 30 mg/kg/day) was 16%. For the same compound, the “TC, Percent Change from Pre-treatment” value (obese female Zucker rats; 30 mg/kg/day) was 9% and the “TG, Percent Change from Pre-treatment” value (obese female Zucker rats; 30 mg/kg/day) was 14%.

For `CC(C)(CO)[C@H](O)C(=O)NCCNC(=O)[C@@H](O)C(C)(C)CO` [Compound V4], the melting point was 124.8 to 124.9 °C, the “Glucose, Percent Change” value (obese female Zucker rats; 30 mg/kg/day) was 2% and the “% wt. gain” value (obese female Zucker rats; 30 mg/kg/day) was 12%. The “HDL-C/non HDL-C” value (obese female Zucker rats; 30 mg/kg/day) was 1, the “BHA, Percent Change from Pre-treatment” value (obese female Zucker rats; 30 mg/kg/day) was 79% and the “HDL-C, Percent Change from Pre-treatment” value (obese female Zucker rats; 30 mg/kg/day) was 5%. For the same compound, the “Insulin, Percent Change” value (obese female Zucker rats; 30 mg/kg/day) was 4%, the “NEFA, Percent Change from Pre-treatment” value (obese female Zucker rats; 30 mg/kg/day) was −28% and the “Non HDL-C, Percent Change” value (obese female Zucker rats; 30 mg/kg/day) was 75%. For the same compound, the “TC, Percent Change from Pre-treatment” value (obese female Zucker rats; 30 mg/kg/day) was 23% and the “TG, Percent Change from Pre-treatment” value (obese female Zucker rats; 30 mg/kg/day) was 22%.

For `CC(C)(CO)C(O)C(=O)NCCOCCNC(=O)C(O)C(C)(C)CO` (centres unmarked) [U, N-{2-[2-(2,4-Dihydroxy-3,3-dimethylbutyrylamino)-ethoxy]-ethyl}-2,4-dihydroxy-3,3-dimethylbutyramide], the “Glucose, Percent Change” value (obese female Zucker rats; 100 mg/kg/day) was −3%, the “% wt. gain” value (obese female Zucker rats; 100 mg/kg/day) was 9% and the “HDL-C/non HDL-C” value (obese female Zucker rats; 100 mg/kg/day) was 2. For the same compound, the “BHA, Percent Change from Pre-treatment” value (obese female Zucker rats; 100 mg/kg/day) was 254%, the “HDL-C, Percent Change from Pre-treatment” value (obese female Zucker rats; 100 mg/kg/day) was 14% and the “Insulin, Percent Change” value (obese female Zucker rats; 100 mg/kg/day) was 6%. For the same compound, the “NEFA, Percent Change from Pre-treatment” value (obese female Zucker rats; 100 mg/kg/day) was 13%, the “Non HDL-C, Percent Change” value (obese female Zucker rats; 100 mg/kg/day) was −2% and the “TC, Percent Change from Pre-treatment” value (obese female Zucker rats; 100 mg/kg/day) was 8%. The “TG, Percent Change from Pre-treatment” value (obese female Zucker rats; 100 mg/kg/day) was 1%.
